Target: T1, human B1R (Homo sapiens, UniProt P46663)
T1 construct: expressed in transfected cells; host or cells: CHO K1 cells (Chinese Hamster Ovary), stably transfected
T1 sequence (P46663 1-353): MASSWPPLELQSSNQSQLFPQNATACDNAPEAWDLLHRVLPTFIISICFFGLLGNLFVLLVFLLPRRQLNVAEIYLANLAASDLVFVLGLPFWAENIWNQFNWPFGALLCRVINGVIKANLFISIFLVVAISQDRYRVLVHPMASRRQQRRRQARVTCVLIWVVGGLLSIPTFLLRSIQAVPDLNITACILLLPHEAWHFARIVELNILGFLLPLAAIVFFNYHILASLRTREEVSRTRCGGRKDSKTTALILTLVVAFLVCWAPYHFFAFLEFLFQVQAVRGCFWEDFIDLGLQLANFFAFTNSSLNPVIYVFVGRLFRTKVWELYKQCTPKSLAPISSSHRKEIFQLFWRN
Test: Functional assay at bradykinin receptor 1 (B1R): Ca2+ fluorescence (Fluo-4) in FLIPR/Novostar, antagonist mode
Format: cell-based
Settings: test substance 10 µM, CHO K1 cells stably transfected with human B1R gene (hB1R-Zellen), agonist Lys-Des-Arg9-Bradykinin at EC80, % inhibition relative to maximal achievable inhibition; for inhibition at 10 µM: read-out: % Inhibierung (human B1R) bei 10 µM
Description: Die agonistische bzw. antagonistische Wirkung von Substanzen kann am Bradykinin Rezeptor 1 (B1R) der Spezies Mensch und Ratte mit ektopisch exprimierenden Zelllinien (CHO K1 Zellen) und mit Hilfe eines Ca^2+-sensitiven Farbstoffs (Fluo-4) im Fluorescent Imaging Plate Reader (FLIPR) quantifiziert werden. Die Angabe in % Aktivierung wird bezogen auf das Ca^2+-Signal nach Zugabe von Lys-Des-Arg^9-Bradykinin ([…]), bzw. Des-Arg^9-Bradykinin (100 nM). Antagonisten führen zu einer Unterdrückung des Ca^2+-Einstroms nach der Zugabe des Agonisten. Angegeben werden % Inhibition im Vergleich zu der maximal erreichbaren Inhibition.
Die agonistische bzw. antagonistische Wirkung von Substanzen kann am Bradykinin Rezeptor 1 (B1R) der Spezies Mensch und Ratte mit folgendem Assay bestimmt werden. Gemäß diesem Assay wird der intrazelluläre Ca^2+-Anstieg nach Gabe eines B1 R Agonisten mit Hilfe eines Ca^2+-sensitiven Farbstoffs (Typ Fluo-4, Molecular Probes Europe BV, Leiden NL) im Fluorescent Imaging Plate Reader (FLIPR, Molecular Devices, Sunnyvale, USA) und/oder im Novostar (BMG Labtech GmbH, Offenburg, DE) quantifiziert.
Es werden Chinese Hamster Ovary Zellen (CHO K1 Zellen) verwendet, die stabil mit dem humanen B1 R-Gen (hB1R-Zellen) bzw. dem B1 R-Gen der Ratte (rB1R-Zellen) transfiziert sind. Für funktionelle Untersuchungen werden diese Zellen auf schwarze 96-Loch-Platten mit klarem Boden (BD Biosciences, Heidelberg, DE oder Greiner, Frickenhausen, DE) in einer Dichte von 20.000 - 35.000 Zellen/Loch ausplattiert. Über Nacht werden die Zellen bei 37°C und 5 % CO2 in Kulturmedium (hB1 R-Zellen: Nutrient Mixture Ham's F12, Gibco Invitrogen GmbH, Karlsruhe, Deutschland oder DMEM, Sigma-Aldrich, Taufkirchen, Deutschland; rB1R-Zellen: D-MEM/F12, Gibco Invitrogen GmbH, Karlsruhe, DE) mit 10 Vol-% FBS (Fetal bovine serum, Gibco Invitrogen GmbH, Karlsruhe, DE oder PAN Biotech GmbH, Aidenbach, DE) belassen. Am folgenden Tag werden die Zellen mit 2,13 µM Fluo-4 (Molecular Probes Europe BV, Leiden, NL) in HBSS-Puffer (Hank's buffered saline solution, Gibco Invitrogen GmbH, Karlsruhe, DE) mit 2,5 mM Probenecid (Sigma-Aldrich, Taufkirchen, DE) und 10 mM HEPES (Sigma-Aldrich, Taufkirchen, DE) für 60 min bei 37°C beladen. Anschließend werden die Platten 2 x mit HBSS-Puffer gewaschen und mit HBSS-Puffer versetzt, der zusätzlich 0,1 % BSA (bovines Serumalbumin; Sigma-Aldrich, Taufkirchen, Deutschland), 5,6 mM Glucose und 0,05 % Gelatine (Merck KGaA, Darmstadt, DE) enthält. Nach einer weiteren Inkubation von 20 Minuten bei RT werden die Platten zur Ca^2+-Messung im FLIPR oder Novostar eingesetzt. Alternativ wird mit Puffer A (15 mM HEPES, 80 mM NaCl, 5 mM KCI, 1,2 mM CaCl2, 0,7 mM MgSO4, 2g/L Glucose, 2,5 mM Probenecid) gewaschen und mit Puffer A versetzt mit 2,5 µM Fluo-4 und 0,025 % Pluronic F127 (Sigma-Aldrich, Taufkirchen, DE) beladen. Danach werden die Zellen 2 x mit Puffer A gewaschen und für 30 Minuten mit Puffer A, der zusätzlich 0,05 % BSA und 0,05 % Gelatine enthält bei RT inkubiert und danach zur Ca^2+-Messung im FLIPR oder Novostar eingesetzt.
Die Ca^2+-abhängige Fluoreszenz wird dabei vor und nach Zugabe von Substanzen gemessen (λex = 488 nm, λem = 540 nm). Die Quantifizierung erfolgt durch die Messung der höchsten Fluoreszenzintensität (FC, Fluorescence Counts) über die Zeit.
Das FLIPR-Protokoll besteht aus 2 Substanzzugaben, die im FLIPR pipettiert werden. Bei Messungen im Novostar wird nur die zweite Substanzzugabe im Gerät pipettiert. Beide Geräte messen die Fluoreszenzintensität über die Zeit. Zunächst werden Testsubstanzen (10 µM) auf die Zellen pipettiert und der intrazelluläre Ca^2+-Anstieg mit der Kontrolle (hB1 R: Lys-Des-Arg^9-Bradykinin >= 50 nM; rB1 R: Des-Arg^9-Bradykinin >= 1 µM) verglichen. Daraus ergibt sich die Angabe in % Aktivierung bezogen auf das Ca^2+-Signal nach Zugabe von Lys-Des-Arg^9-Bradykinin (>= 50 nM), bzw. Des-Arg^9-Bradykinin (>=1 µM). Nach 6-20 Minuten Inkubation werden Lys-Des-Arg^9-Bradykinin (hB1 R) bzw. […]

| Molecule | % Inhibierung (human B1R) bei 10 µM | inhibition at 10 µM |
| --- | --- | --- |
| 2-[3-[[(2,3-Dichlor-phenyl)sulfonyl]-methyl]-[1,2,4]oxadiazol-5-yl]-N-(1,3,3-trimethyl-piperidin-4-yl)-acetamid [CC-114] | 61% |  |
| 2-[3-[[(2-Chlor-6-methyl-phenyl)sulfonyl]-methyl]-[1,2,4]oxadiazol-5-yl]-N-(3,3-dimethyl-piperidin-4-yl)-acetamid [CC-120] | 98% |  |
| 2-[3-[[(2-Chlor-6-methyl-phenyl)sulfonyl]-methyl]-[1,2,4]oxadiazol-5-yl]-N-(4-dimethylamino-cyclohexyl)-acetamid [CC-128] | 99% |  |
| 2-[3-[[(4-Chlor-2,5-dimethyl-phenyl)sulfonyl]-methyl]-[1,2,4]oxadiazol-5-yl]-N-cyclopropyl-N-(4-dimethylamino-cyclohexyl)-acetamid [CC-113] | 90% |  |
| COc1cc(C)c(S(=O)(=O)Cc2noc(C(=O)N[C@H]3CCC[C@@H](N4CCN(C)CC4)C3)n2)c(C)c1 [CC-01, 3-[[(4-Methoxy-2,6-dimethyl-phenyl)sulfonyl]-methyl]-N-[(1S,3R)-3-(4-methyl-piperazin-1-yl)-cyclohexyl]-[1,2,4]oxadiazol-5-carbonsäure amid] |  | 100% |
| COc1cc(C)c(S(=O)(=O)Cc2noc(C(=O)NC3CCN(c4ccc(C(F)(F)F)cn4)CC3)n2)c(C)c1 [CC-02, 3-[[(4-Methoxy-2,6-dimethyl-phenyl)sulfonyl]-methyl]-N-[1-[5-(trifluormethyl)-pyridin-2-yl]-piperidin-4-yl]-[1,2,4]oxadiazol-5-carbonsäure amid] |  | 86% |
| COc1cc(C)c(S(=O)(=O)Cc2noc(CC(=O)NC3CCN(c4ccc(C(F)(F)F)cn4)CC3)n2)c(C)c1 [CC-03, 2-[3-[[(4-Methoxy-2,6-dimethyl-phenyl)sulfonyl]-methyl]-[1,2,4]oxadiazol-5-yl]-N-[1-[5-(trifluor-methyl)-pyridin-2-yl]-piperidin-4-yl]-acetamid] |  | 91% |
| COc1cc(C)c(S(=O)(=O)Cc2noc(C(=O)NC3CCC(N(C)C)CC3)n2)c(C)c1 (centres unmarked) [CC-04, N-(4-Dimethylamino-cyclohexyl)-3-[[(4-methoxy-2,6-dimethyl-phenyl)sulfonyl]-methyl]-[1,2,4]oxa-diazol-5-carbonsäure amid] |  | 100% |
| COc1cc(C)c(S(=O)(=O)Cc2noc(CC(=O)NC3CCC(N(C)C)CC3)n2)c(C)c1 (centres unmarked) [CC-05, N-(4-Dimethylamino-cyclohexyl)-2-[3-[[(4-methoxy-2,6-dimethyl-phenyl)sulfonyl]-methyl]-[1,2,4]oxadiazol-5-yl]-acetamid] |  | 100% |
| COc1cc(C)c(S(=O)(=O)Cc2noc(CC(=O)N(C)CCC3CCN(c4ccncc4)CC3)n2)c(C)c1 [CC-06, 2-[3-[[(4-Methoxy-2,6-dimethyl-phenyl)sulfonyl]-methyl]-[1,2,4]oxadiazol-5-yl]-N-methyl-N-[2-(1-pyridin-4-yl-piperidin-4-yl)-ethyl]-acetamid] |  | 100% |
| Cc1cccc(Cl)c1S(=O)(=O)Cc1noc(C(=O)NC2CCN(c3ccc(C(F)(F)F)cn3)CC2)n1 [CC-09, 3-[[(2-Chlor-6-methyl-phenyl)sulfonyl]-methyl]-N-[1-[5-(trifluormethyl)-pyridin-2-yl]-piperidin-4-yl]-[1,2,4]oxadiazol-5-carbonsäure amid] |  | 54% |
| COc1cc(C)c(S(=O)(=O)Cc2noc(C(=O)N(C)CCC3CCN(c4ccncc4)CC3)n2)c(C)c1 [CC-10, 3-[[(4-Methoxy-2,6-dimethyl-phenyl)sulfonyl]-methyl]-N-methyl-N-[2-(1-pyridin-4-yl-piperidin-4-yl)-ethyl]-[1,2,4]oxadiazol-5-carbonsäure amid] |  | 100% |
| Cc1cccc(Cl)c1S(=O)(=O)Cc1noc(C(=O)NC2CCC(N(C)C)CC2)n1 (centres unmarked) [CC-11, 3-[[(2-Chlor-6-methyl-phenyl)sulfonyl]-methyl]-N-(4-dimethylamino-cyclohexyl)-[1,2,4]oxadiazol-5-carbonsäure amid] |  | 95% |
| Cc1cc(S(=O)(=O)Cc2noc(C(=O)NC3CCC(N(C)C)CC3)n2)c(C)cc1Cl (centres unmarked) [CC-13, 3-[[(4-Chlor-2,5-dimethyl-phenyl)sulfonyl]-methyl]-N-(4-dimethylamino-cyclohexyl)-[1,2,4]oxa-diazol-5-carbonsäure amid] |  | 99% |
| Cc1cccc(Cl)c1S(=O)(=O)Cc1noc(C(=O)N(C)CCC2CCN(c3ccncc3)CC2)n1 [CC-14, 3-[[(2-Chlor-6-methyl-phenyl)sulfonyl]-methyl]-N-methyl-N-[2-(1-pyridin-4-yl-piperidin-4-yl)-ethyl]-[1,2,4]oxadiazol-5-carbonsäure amid] |  | 100% |
| Cc1cc(S(=O)(=O)Cc2noc(C(=O)N(C)CCC3CCN(c4ccncc4)CC3)n2)c(C)cc1Cl [CC-16, 3-[[(4-Chlor-2,5-dimethyl-phenyl)sulfonyl]-methyl]-N-methyl-N-[2-(1-pyridin-4-yl-piperidin-4-yl)-ethyl]-[1,2,4]oxadiazol-5-carbonsäure amid] |  | 100% |
| COc1cc(C)c(S(=O)(=O)Cc2noc(C(=O)NC3CCNCC3(C)C)n2)c(C)c1 (centres unmarked) [CC-17, N-(3,3-Dimethyl-piperidin-4-yl)-3-[[(4-methoxy-2,6-dimethyl-phenyl)sulfonyl]-methyl]-[1,2,4]oxa-diazol-5-carbonsäure amid] |  | 100% |
| COc1cc(C)c(S(=O)(=O)Cc2noc(CC(=O)NC3CCNCC3(C)C)n2)c(C)c1 (centres unmarked) [CC-18, N-(3,3-Dimethyl-piperidin-4-yl)-2-[3-[[(4-methoxy-2,6-dimethyl-phenyl)sulfonyl]-methyl]-[1,2,4]oxadiazol-5-yl]-acetamid] |  | 100% |
| Cc1cccc(Cl)c1S(=O)(=O)Cc1noc(C(=O)NC2CCC(N3CCCC3)CC2(C)C)n1 (centres unmarked) [CC-20, 3-[[(2-Chlor-6-methyl-phenyl)sulfonyl]-methyl]-N-(2,2-dimethyl-4-pyrrolidin-1-yl-cyclohexyl)-[1,2,4]oxadiazol-5-carbonsäure amid] |  | 89% |
| COc1cc(C)c(S(=O)(=O)Cc2noc(C(=O)NC3CCC(N4CCCC4)CC3(C)C)n2)c(C)c1 (centres unmarked) [CC-21, N-(2,2-Dimethyl-4-pyrrolidin-1-yl-cyclohexyl)-3-[[(4-methoxy-2,6-dimethyl-phenyl)sulfonyl]-methyl]-[1,2,4]oxadiazol-5-carbonsäure amid] |  | 100% |
